Measured values as given in US10632122B2, “Compositions and methods for treating toxoplasmosis, cryptosporidiosis and other apicomplexan protozoan related diseases” (University of Washington, priority 2015, dated 2020).

Experiments:
[1] = Rat PK following IV and PO dosing; conditions: PO vs IV, rats
N. caninum = assay: Mice experimentally infected with N. caninum; set-up: species or system Balb/c mice; conditions: mouse, in vivo

Structure (SMILES)	bioavailability [1]	treatment of N. caninum infected mice (N. caninum)
CC(C)Cn1nc(-c2ccc3cc(OCC(C)(C)O)ccc3c2)c2c(N)ncnc21 [Example 33, 1-(6-(4-amino-1-isobutyl-1H-pyrazolo[3,4-d]pyrimidin-3-yl)naphthalen-2-yloxy)-2-methylpropan-2-ol]	essentially complete bioavailability	
CCOc1ccc2cc(-c3nn(CC4CCN(C)CC4)c4ncnc(N)c34)ccc2c1 [Compound 150]		treats infected mice and rids of N. caninum infection in brain and fetuses
